In experiment [1] the target is T1, human neurokinin 1 (NK1) receptor (Homo sapiens, UniProt P25103).
T1 construct: expressed in transfected cells; host or cells: Chinese Hamster ovary (CHO) cells; membranes
Kind of experiment: Neurokinin receptor binding assay, [3H]-Substance P competition, CHO cell membranes (NK1). To be noted: [3H]-Substance P 0.8 nM. As to the method:
(§1) Chinese Hamster ovary (CHO) cells transfected with the coding regions for the human neurokinin 1 (NK1) of the human neurokinin 2 (NK2) receptors are grown in Dulbecco's minimal essential medium supplemented with 10% fetal calf serum, 0.1 mM non-essential amino acids, 2 mM glutamine, 100 units/ml of penicillin and streptomycin, and 0.8 mg of G418/ml at 37° C. in a humidified atmosphere containing 5% CO2.
(§2) Cells are detached from T-175 flasks with a sterile solution containing 5 mM EDTA in phosphate buffered saline. Cells are harvested by centrifugation and washed in RPMI media at […] for 5 minutes. […]
(§3) To assay receptor binding, 50 μl of [^3 H]-Substance P (9-Sar, 11-Met) (specific activity 41 Ci/mmol) (Dupont-NEN) (0.8 nM for the NK-1 assay) or [^3 H]-Neurokinin A (specific activity 114 Ci/mmole) (Zenca) (1.0 nM for the NK-2 assay) is added to tubes containing buffer (50 mM Tris-HCl (pH 7.4) with 1 mM MnCl2 and 0.2% Bovine Serum Albumin) and either DMSO or test compound. […] Filters are added to 6 mls of Ready-Safe liquid scintillation cocktail and quantified by liquid scintillation spectrometry in a LKB 1219 RackBeta counter. Non-specific binding is determined by the addition of either 1 μM of CP-99994 (NK-1) or 1 μM SR-48968 (NK-2) (both synthesized by the chemistry department of Schering-Plough Research Institute). […]

Experiment [2] concerns the target T2, human neurokinin 2 (NK2) receptor (Homo sapiens, UniProt P21452).
T2 construct: expressed in transfected cells; host or cells: Chinese Hamster ovary (CHO) cells; membranes
T2 sequence (P21452 1-398): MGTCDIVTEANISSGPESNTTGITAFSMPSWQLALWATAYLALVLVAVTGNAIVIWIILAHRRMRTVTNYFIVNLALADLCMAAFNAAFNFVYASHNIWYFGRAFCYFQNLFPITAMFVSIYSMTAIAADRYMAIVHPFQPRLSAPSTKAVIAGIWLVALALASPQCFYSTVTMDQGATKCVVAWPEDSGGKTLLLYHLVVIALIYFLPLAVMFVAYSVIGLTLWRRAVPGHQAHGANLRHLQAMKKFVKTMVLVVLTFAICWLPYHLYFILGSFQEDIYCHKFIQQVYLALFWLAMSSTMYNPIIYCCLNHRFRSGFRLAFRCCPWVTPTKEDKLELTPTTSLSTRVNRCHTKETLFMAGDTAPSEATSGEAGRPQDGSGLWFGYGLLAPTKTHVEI
As to the kind of experiment: Neurokinin receptor binding assay, [3H]-Neurokinin A competition, CHO cell membranes (NK2). The conditions noted are these: [3H]-Neurokinin A 1.0 nM. As to the method:
as §1, §2, §3

T1 sequence (P25103 whole entry): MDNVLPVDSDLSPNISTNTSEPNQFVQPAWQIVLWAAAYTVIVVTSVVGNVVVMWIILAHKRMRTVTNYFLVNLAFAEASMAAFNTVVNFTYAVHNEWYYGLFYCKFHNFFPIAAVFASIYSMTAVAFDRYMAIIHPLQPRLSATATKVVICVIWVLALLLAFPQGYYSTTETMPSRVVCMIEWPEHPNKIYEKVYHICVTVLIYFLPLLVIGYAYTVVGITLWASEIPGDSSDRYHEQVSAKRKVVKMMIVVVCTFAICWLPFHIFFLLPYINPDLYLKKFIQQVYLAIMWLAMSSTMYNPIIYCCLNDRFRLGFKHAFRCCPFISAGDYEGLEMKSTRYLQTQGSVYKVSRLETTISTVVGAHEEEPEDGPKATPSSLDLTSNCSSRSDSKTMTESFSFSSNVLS

As to `OCCON=C(COCc1cc(C(F)(F)F)cc(C(F)(F)F)c1)C(CCN1CCC(O)(c2ccccc2)CC1)c1csc2ccccc12` (stereo not shown) [Example 4D], the Ki in experiment [1] was determined as 1.8 nM; in experiment [2] it was 23 nM.

Regarding `CON=C(CN(C)C(=O)c1cc(C)cc(C)c1)C(CCN1CCC(O)(c2ccccc2)CC1)c1csc2ccccc12` (stereo not shown) [Example 7B], the Ki in experiment [1] turned out to be 0.65 nM; in experiment [2] it was 4.5 nM.

The values above are taken from US5688960A, “Substituted oximes, hydrazones and olefins useful as neurokinin antagonists” (Schering Corporation, priority 1996, dated 1997).
